From PMC5223195, “Novel long-chain compounds with both immunomodulatory and MenA inhibitory activities against Staphylococcus aureus and its biofilm” (Scientific Reports, 2017)
In brackets after ≈: the same amount, converted by molar mass. Entries after “also recorded” stand apart in the source; their conditions may differ. Read-outs that look alike come from different tables or passages of the source.

Legend:
[1] = tested on: Methicillin susceptible Staphylococcus aureus; assay: MIC against MSSA; format: cell-based; details: for MIC: MSSA
Procedure: (§1) 96-well plates were seeded with 5 × 10^5 CFU/mL in a volume of 100 μL of tryptic soy broth (TSB) per well for Staphylococcus aureus assays. Compounds were dissolved in DMSO and serially diluted as 1:2 dilutions to give the final concentration ranging from 0.25 to 128 μg/mL per well. […] Plates were incubated at 37 °C for 18–20 hours and MIC was determined by reading OD625. For M.avium and M.abscessus, 7H9 broth media was used for determination of MICs. The final concentration was 5 × 10^5 CFU/mL in each well. The plate was incubated at 37 °C for 7–8 days and MICs were determined using a Tecan microplate reader (OD625) and resazurin reduction assay.

[2] = tested on: MRSA USA500; assay: MIC against MRSA USA500; format: cell-based, Staphylococcus aureus; details: TSB, 37 °C, 18–20 hours; for MIC: Staphylococcus aureus, read-out: MIC, Staphylococcus aureus isolate USA500
Procedure: as §1

[3] = tested on: MRSA USA300; assay: MIC against MRSA USA300; format: cell-based, Staphylococcus aureus; details: TSB, 37 °C, 18–20 hours; for MIC: Staphylococcus aureus, read-out: MIC, Staphylococcus aureus isolate USA300
Procedure: as §1

[4] = tested on: MRSA USA800; assay: MIC against MRSA USA800; format: cell-based, Staphylococcus aureus; details: TSB, 37 °C, 18–20 hours; for MIC: Staphylococcus aureus, read-out: MIC, Staphylococcus aureus isolate USA800
Procedure: as §1

[5] = tested on: MRSA USA200; assay: MIC against MRSA USA200; format: cell-based, Staphylococcus aureus; details: TSB, 37 °C, 18–20 hours; for MIC: Staphylococcus aureus, read-out: MIC, Staphylococcus aureus isolate USA200
Procedure: as §1

[6] = tested on: Mycobacterium avium; assay: MIC against Mycobacterium avium; format: cell-based; details: 7H9 broth, 7–8 days
Procedure: as §1

[7] = tested on: MRSA USA100; assay: MIC against MRSA USA100; format: cell-based, Staphylococcus aureus; details: TSB, 37 °C, 18–20 hours; for MIC: Staphylococcus aureus, read-out: MIC, Staphylococcus aureus isolate USA100
Procedure: as §1

[8] = tested on: IL-6; assay: IL-6 release from THP-1 macrophages; format: cell-based, human; details: concentration equal to MIC, 24 h, 37 °C
Procedure: (§2) THP-1 cells were differentiated into macrophages by treatment with PMA (7.5 ng/mL). Levels of the human cytokines (GM-CSF, IFN-γ, IL-1β, IL-2, IL-4, IL-5, IL-6, IL-8, IL-10, TNF-α) released from THP-1 macrophages were determined using a multiplex kit from Life Technologies according to the manufacturer’s instructions. In brief, the 96 well filter plate was pre-wetted, and then 25 μL of the diluted bead suspension was added to each well and washed twice. 100 μL of samples and standards were added to each well. The plate was incubated at room temperature for 2 h on a shaker. Following washing, biotinylated detection antibody was added and incubated for 1 h. After washing, streptavidin-RPE was added to each well and incubated for 0.5 h. The plate was again washed, resuspended in 100 μL of the washing buffer, and read on the Luminex xMAP™ system (Bio-Rad, AtheNA multi-Lyte™, USA). All samples were run in triplicate and standards were run in duplicate.

[9] = tested on: MRSA USA 700; assay: Menaquinone (MK-4) rescue, resazurin reduction assay, USA 700; format: cell-based; details: Staphylococcus aureus, read-out: MIC in the presence of MK-4
Procedure: (§3) Resazurin reduction assay was performed in 96-well plate. MRSA was cultured in TSB until OD625 reached 0.4~0.5 and diluted and plated in 96-well plate. […] The plate was incubated overnight at 37 °C followed by 20 μL of resazurin (0.15 mg/mL) was added to each well. The plate was incubated for 2–4 h and fluorescence was measured at 560 nm excitation/590 nm emission.

[10] = tested on: TNF-α; assay: TNF-α release from THP-1 macrophages; format: cell-based, human; details: concentration equal to MIC, 24 h, 37 °C
Procedure: as §2

[11] = tested on: MRSA strains; assay: MIC against MRSA strains (summary); format: cell-based, Staphylococcus aureus; details: range over MRSA strains
Procedure: as §1

[12] = tested on: Gram-positive bacteria; assay: MIC against Gram-positive bacteria (summary); format: cell-based; details: range over all tested Gram-positive bacteria
Procedure: as §1

[13] = tested on: MRSA (USA 700); assay: Activity against extracellular MRSA in the presence of human MDMs; format: cell-based, Staphylococcus aureus; details: extracellular MRSA USA700, MIC and MIC/4, 24 h
Procedure: Human monocyte-derived macrophages (MDM) were cultured at a concentration of 1 × 10^6 cells/mL/well in a 24 well plate. MRSA (USA 700) was cultured in TSB (10 mL) until OD625 reached 0.4~0.5 and then centrifuged at 14,000 rpm for 10 min. The pellets were resuspended in 10 mL of DMEM supplemented with 10% human serum (no antibiotics). The bacteria medium was diluted with DMEM containing an inhibitor to obtain 1 × 10^6 CFU/mL and added to human MDMs (MOI = 1) in a 24-well plate. After 24 hour infection at 37 °C, the supernatants were serially diluted for CFU determination (TSA plates).

[14] = tested on: Mycobacterium abscessus; assay: MIC against Mycobacterium abscessus; format: cell-based; details: Mycobacteroides abscessus, 7H9 broth, 7–8 days
Procedure: as §1

[15] = tested on: MRSA USA700; assay: MIC against MRSA USA700; format: cell-based, Staphylococcus aureus; details: TSB, 37 °C, 18–20 hours; for MIC: Staphylococcus aureus, read-out: MIC, Staphylococcus aureus isolate USA700
Procedure: as §1

[16] = tested on: Pseudomonas aeruginosa; assay: MIC against Pseudomonas aeruginosa; format: cell-based; details: for MIC: read-out: MIC, PA
[17] = tested on: MRSA USA400; assay: MIC against MRSA USA400; format: cell-based, Staphylococcus aureus; details: TSB, 37 °C, 18–20 hours; for MIC: Staphylococcus aureus, read-out: MIC, Staphylococcus aureus isolate USA400
Procedure: as §1

[18] = tested on: MRSA (USA200); assay: Colony morphology / small colony variant formation on TSA; format: cell-based, Staphylococcus aureus
Procedure: MRSA was streaked and then incubated on tryptic soy agar (TSA) containing 0, 2, 4, 8 or 16 μg/mL of inhibitor 3a or 4 μg/mL of 7C or 0.025 μg/mL of rifampin at 37 °C for 96 h. MK-4 (100 μg/mL) was supplemented in TSA containing 8 μg/mL of 3a for the rescue experiment.

[19] = tested on: MRSA (USA700) biofilms; assay: S. aureus biofilm assay; format: cell-based, Staphylococcus aureus; details: USA700 biofilm, 24 h
Procedure: Biofilm assays were performed using a method previously described with modification. A 96 well plate was precoated with 20% human plasma (Sigma) in 0.05 M carbonate buffer, pH 9.6 at 4 °C for 24 h. MRSA was cultured overnight in TSB containing 3% NaCl and 0.5% glucose. The overnight culture was diluted with TSB/NaCl/Glucose media until OD600 reached 0.05. After carefully removing the liquid from the 96 well plate, 200 μL of MRSA dilution was added to each well in triplicate. The plate was incubated at 37 °C for 24 h and carefully washed with PBS twice. MH broth (200 μL) containing a compound was added to each well in triplicate and incubated at 37 °C for 24 h. After washing with PBS twice, the biofilm was scraped in 100 μL of PBS and serially diluted and plated on TSA to determine CFU.

[20] = tested on: Enterococcus faecalis; assay: MIC against Enterococcus faecalis; format: cell-based; details: for MIC: read-out: MIC, EF
[21] = tested on: IL-1β; assay: IL-1β release from THP-1 macrophages; format: cell-based, human; details: concentration equal to MIC, 24 h, 37 °C
Procedure: as §2

[22] = tested on: MRSA USA 200; assay: Menaquinone (MK-4) rescue, resazurin reduction assay, USA 200; format: cell-based; details: Staphylococcus aureus, read-out: MIC in the presence of MK-4
Procedure: as §3

| Structure (SMILES) | MIC [1] | MIC [2] | MIC [3] | MIC [4] | MIC [5] | MIC [6] | MIC [7] | IL-6 released from THP-1 macrophages [8] | TNF-α released from THP-1 macrophages [10] | MIC values against all Gram-positive bacteria (range) [12] | increase of antibacterial activity compared to activities with MDMs [13] | increase of antibacterial activity compared to activities without MDMs [13] | MIC [14] | MIC [15] | MIC, Staphylococcus aureus isolate USA700 [15] | MIC [16] | MIC [17] | MIC [20] | IL-1β released from THP-1 macrophages [21] | MIC, Staphylococcus aureus isolate USA200 [5] | other results |
| --- | --- | --- | --- | --- | --- | --- | --- | --- | --- | --- | --- | --- | --- | --- | --- | --- | --- | --- | --- | --- | --- |
| COc1ccc2ccc(OCCCCCCCCNCCc3ccc(F)cc3)cc2c1 [3a] | 4 µg/mL (≈ 9.44 µM) | 4 µg/mL (≈ 9.44 µM) | 4 µg/mL (≈ 9.44 µM) | 6 µg/mL (≈ 14.2 µM) | 2 µg/mL (≈ 4.72 µM) | 2 µg/mL (≈ 4.72 µM) | 4 µg/mL (≈ 9.44 µM) | decreased; also recorded: significantly reduced | decreased | 0.5 to 16 µg/mL | 1.5 – 3 fold | 6–12 fold | 6 µg/mL (≈ 14.2 µM) | 4 µg/mL (≈ 9.44 µM) | 4 µg/mL (≈ 9.44 µM) | > 64 µg/mL | 4 µg/mL (≈ 9.44 µM) | 1 µg/mL (≈ 2.36 µM) | stimulated the release | – | MIC ([9]; USA 700, 0.05 mg/mL MK-4): 16 µg/mL; MIC ([9]; USA 700, 0.5 mg/mL MK-4): 64 µg/mL; MICs against MRSA strains (range) [11]: 1 to 8 µg/mL; colonies on MK-4 supplemented agar plate ([18]; USA200, 8 μg/mL inhibitor + MK-4 100 μg/mL): showed wild-type colonies; colonies on agar plates ([18]; USA200, more than 2× MIC, after 24 h): No colonies were observed; induction of small colony variants (SCV) ([18]; USA200 on TSA, 37 °C, up to 96 h (3a 4–16 μg/mL), 72 h (7c, rifampin)): did not induce SCV; fold decrease in MRSA growth from the treated biofilm ([19]; 0.03 mg/mL): 10^4 fold; fold decrease in MRSA growth from the treated biofilm ([19]; 0.5 mg/mL): 10^6 fold; fold decrease in MRSA growth from the treated biofilm ([19]; 1 mg/mL): 10^7 fold |
| COc1ccc2ccc(OCCCCCCCCNCCc3ccc(Br)cc3)cc2c1 [3c] | 4 µg/mL (≈ 8.26 µM) | 6 µg/mL (≈ 12.4 µM) | 4 µg/mL (≈ 8.26 µM) | 6 µg/mL (≈ 12.4 µM) | 2 µg/mL (≈ 4.13 µM) | 4 µg/mL (≈ 8.26 µM) | 6 µg/mL (≈ 12.4 µM) | – | – | 0.5 to 16 µg/mL | – | – | 12 µg/mL (≈ 24.8 µM) | 4 µg/mL (≈ 8.26 µM) | – | > 64 µg/mL | 4 µg/mL (≈ 8.26 µM) | 1 µg/mL (≈ 2.06 µM) | – | 2 µg/mL (≈ 4.13 µM) | MIC ([22]; USA 200, 0.05 mg/mL MK-4): 16 µg/mL; MIC ([22]; USA 200, 0.5 mg/mL MK-4): 64 µg/mL |
| Brc1cc2ccc(OCCCCCCCCN3CCCCC3)cc2cc1OCc1ccccc1 [6b] | – | – | – | – | – | – | – | decreased; also recorded: significantly reduced | decreased | – | 1.5 – 3 fold | 6–12 fold | – | – | 16 µg/mL (≈ 30.5 µM) | – | – | – | stimulated the release | 4 µg/mL (≈ 7.63 µM) | MIC, MSSA [1]: 4 µg/mL (≈ 7.63 µM); MIC, Staphylococcus aureus isolate USA500 [2]: 12 µg/mL (≈ 22.9 µM); MIC, Staphylococcus aureus isolate USA300 [3]: 6 µg/mL (≈ 11.4 µM); MIC, Staphylococcus aureus isolate USA800 [4]: 12 µg/mL (≈ 22.9 µM); MIC, MA [6]: 2 µg/mL (≈ 3.81 µM); MIC, Staphylococcus aureus isolate USA100 [7]: 6 µg/mL (≈ 11.4 µM); MIC, PA [16]: >128 µg/mL; MIC, Staphylococcus aureus isolate USA400 [17]: 6 µg/mL (≈ 11.4 µM); MIC, EF [20]: 2 µg/mL (≈ 3.81 µM) |
